The term CC50 denotes the concentration that lowers cell viability or growth by half. Read a low CC50 as greater toxicity to the cells.

Entries after “also recorded” stand apart in the source; their conditions may differ.

For data set [1], the system named is ARPE-19 cells. The data set can be described thus: ARPE-19 cytotoxicity of liposomal complexes, MTT assay. Conditions: similar concentrations as cycloretinal, 96-h period. In kind it is cell-based. As for the experimental part:
(§1) The liposomal complexes were prepared as follows. Cycloretinal (10 mg), β-Ionone (20 mg), and 2,4-Dimethylbenzaldehyde (20 mg) were dissolved separately in ethanol (1 mL). Glyoxal (5.80 mg), methylglyoxal (7.21 mg), and β-cyclocitral (15.2 mg) were dissolved separately in chloroform (1 mL). A liposome solution of cholesterol (112 mg), Tween 80 (504 mg), and L-α-phosphatidylcholine (730 mg) were dissolved in 16 mL of chloroform. Liposome solution (2 mL) was added to each of the compounds. The solvents were removed under vacuum and charged with nitrogen. Each of the flasks were then mixed with 5 mL of water and stirred at 60° C. for 1 h. Each solution was placed on ice and sonicated with a probe sonicator (15 seconds on/15 seconds off) for 5 min. The solutions were centrifuged at 11,000×g for 30 min and filtered through a 0.2 μm filter. Each sample (10 μL) was added to 1 mL ethanol and measured by absorption via UV-Vis spectroscopy. The extinction coefficients were 9970 M^−1cm^−1, 26343 M^−1cm^−1, and 13476 M^−1cm^−1 for cycloretinal, 2,4-dimethylbenzaldehyde, and β-ionone, respectively. […]
(§2) Cell viability was assessed with the MTT cell proliferation assay. […] The absorbance was subsequently evaluated at 570 nm utilizing a microplate reader (quant absorbance plate reader, BioTek Instruments Inc.) […]
(Formazan colour is commonly taken as a measure of viable cells.)

A short description of data set [2]: MsP1 catalyzed degradation of cycloretinal; visual inspection and HPLC time course of degradation products. In kind it is biochemical. Conditions: at 12 hours. As for the experimental part:
After 24 hours of incubation, broth cultures were transferred to sterile Eppendorf tubes and the organics extracted using an equal volume of dichloromethane (DCM) through vigorous vortexing. The organics were separated by centrifugation (13,000 rpm for 20 minutes), retrieved with a needle, and subsequently concentrated under nitrogen. The dried product was solubilized in 20 μL DCM and analyzed by high performance liquid chromatography (HPLC). HPLC analysis was performed on a Varian Prostar system equipped with a Phenomenex 5 μm 100 Å normal phase column (250×10 mm×5 micron), a UV detector set at 320 nm wavelength and mobile phase comprising 97% DCM and 3% methanol with flow rate of 2 mL/min. Products eluted were further analyzed by GC-MS.
Substrate emulsions (0.01%) were prepared, and Tween 40 was used to enhance solubilization of compounds, or otherwise dissolved in ethanol or DMSO. […]
To generate a standard curve for the degradation products, different concentrations of 2,4-dimethyl benzaldehyde (2, 4, 6, 8, 10 μg/20 μL) and β-ionone (1, 2, 3, 4 μg/20 μL) were analyzed by HPLC under the same conditions as as detailed in Example 3.
To identify the degradation products, cycloretinal was incubated for 1 hour with MsP1 in the presence of hydrogen peroxide. Following incubation, the reaction mixture was extracted and analyzed by GC-MS. […]

A short description of data set [3]: in vitro. Type of data set: cell-based. Conditions: human, arpe-19 cells, EC50 (cytotoxicity). As for the experimental part: as §1, with “spectroscopy.” for “spectroscopy. The extinction coefficients were 9970 M^−1cm^−1, 26343 M^−1cm^−1, and 13476 M^−1cm^−1 for cycloretinal, 2,4-dimethylbenzaldehyde, and β-ionone, respectively.”
Following 24 hour incubation with the liposomal complexes, light induced cell damage was measured by exposing cells to 10 min of irradiation (70 W lamp) through a 430 nm bandpass filter (Thor labs, 430±2 nm). […]
as §2

As for `CC(=O)/C=C/C1=C(C)CCCC1(C)C` [β-ionone], in data set [1], the “impact on cell viability / toxicity to ARPE-19 cells” value is recorded as “no impact on cell viability; also recorded: do not exhibit toxicity”. Moreover, the “level of degradation product in MsP1/cycloretinal reaction (HPLC, standard curve)” value in data set [2] is recorded as “undetectable levels”.

With `CC(C=CC1=C(C)CCCC1(C)C)=CC=CC1=CC=C(C=O)C(C)(C=CC=C(C)C=CC2=C(C)CCCC2(C)C)C1` (stereo not drawn) [cycloretinal], the CC50 at 24 h in data set [3] is 93 ± 6.1 µM.
